Values of other authors in patent US20230116647A1 (Bausch Health Ireland Limited, priority 2020, published 2023).

Tests used:
[1] = tested on: species of Staphylococcus, Streptococcus, Enterococcus, and Enterobacteriaceae; details: cited from earlier work
[2] = tested on: Hepatic Encephalopathy; details: mouse, in vivo; cited from earlier work
[3] = tested on: proteoglycan (PG)-induced ankylosing spondylitis; details: administered for 4 consecutive weeks; cited from earlier work
[4] = tested on: visceral hyperalgesia; details: rat, in vivo; cited from earlier work
[5] = tested on: Minimal Hepatic Encephalopathy; details: cited from earlier work
[6] = tested on: NASH; details: after 6 months of therapy; all P<0.05; cited from earlier work

Molecule: CO[C@H]1/C=C/O[C@@]2(C)Oc3c(C)c(O)c4c(O)c(c5c(nc6cc(C)ccn65)c4c3C2=O)NC(=O)/C(C)=C\C=C\[C@H](C)[C@H](O)[C@@H](C)[C@@H](O)[C@@H](C)[C@H](OC(C)=O)[C@@H]1C [rifaximin, Rifaximin]
- in vitro activity against bacteria [1]: active
- microbiota function (endotoxin, deconjugation and formation of secondary bile acids) [2]: favorably impacted
- systemic inflammation (serum IL-1β, IL-6), intestinal barrier, microbiota composition and function [2]: improved
- inflammatory factors, such as TNF-α, IL-6, IL-17A, and IL-23 [3]: down-regulation
- severity of ankylosing spondylitis [3]: significantly reduced
- mucosal inflammation, measured by levels of IL-17, IL-6 and TNF-α [4]: decreased
- overall quantity of bacteria in the ileum [4]: decreased
- responders in whom all alterations of the immune system were normalized ([5]; human, in vivo): 59%
- effect on alterations of the immune system in non-responders ([5]; non-responders): normalizes only IL-6, CCL20, and differentiation of T lymphocytes to Th22
- homeostatic model assessment, ALT, AST, γ-glutamyl transferase, endotoxin, toll-like receptor-4, IL-6, TNF-α, CK-18, NAFLD-liver fat score [6]: significant reduction

Molecule: neomycin
- elevation in IL-17, IL-6, or TNF-α [4]: did not prevent
- visceral pain [4]: did not decrease
